Results taken from US20070232492A1, “Herbicidal Composition” (Ishihara Sangyo Kaisha, LTD., priority 2004, published 2007).
Where two headings read alike, the source gives them in different places.

How the values were obtained:
Type in all cases: in vivo
[1] = tested on: flatsedge (Cyperus serotinus); assay: Growth inhibition of flatsedge (planted tubers) in paddy soil pots, application under submerged condition, visual rating and Colby expected value
Text: (§1) When the herbicidal activity in a case where two active ingredients are combined, is larger than the simple sum of the respective herbicidal activities of the two active ingredients (the expected activity), it is called a synergistic effect. The activity expected by the combination of two active ingredients can be calculated as follows (Colby S. R., “Weed”, vol. 15, p. 20-22, 1967). E=p+q−(p×q÷100) where p: growth inhibition rate when treated with x (g/a) of herbicide X,
(§2) q: growth inhibition rate when treated with y (g/a) of herbicide Y,
(§3) E: growth inhibition rate expected when treated with x (g/a) of herbicide X and y (g/a) of herbicide Y.
(§4) Namely, when the actual growth inhibition rate (observed value) is larger than the growth inhibition rate by the above calculation (expected value), the activity by the combination can be regarded as showing a synergistic effect.
(§5) Growth inhibition rate (%)=0% (equivalent to the non-treated area) to 100% (complete kill)
(§6) Paddy field soil was put into a 1/10,000 are pot, and tubers of flatsedge (Cyperus serotinus) were planted and left to stand under an irrigated condition with a water depth of 3.5 cm. When flatsedge reached 2.8 to 3.2 leaf stage, wettable powders of compound A2 and compound (B1.2) were, respectively, diluted with water and applied under submerged condition so that the active ingredients became the prescribed amounts, respectively. The state of growth was visually observed 29 days after application, and evaluation and calculation were carried out in the same manner as in the above Test Example 1.
Paddy field soil was put into a 1/3,000 are pot, and tubers of flatsedge (Cyperus serotinus) were planted and left to stand under an irrigated condition with a water depth of 3.5 cm. When flatsedge reached 4 leaf stage, a wettable powder of compound A2 and an emulsifiable concentrate of compound C4 were, respectively, diluted with water and applied under submerged condition so that the active ingredients became the prescribed amounts, respectively. The state of growth was visually observed 21 days after application, and the growth inhibition rate (%) evaluated in the same manner as in the above Test Example 1 (observed value) and the growth inhibition rate (%) calculated by the above-mentioned Colby method (expected value) are shown in Table 32.
as §6, with “2.5” for “2.8”, “3.0” for “3.2”, “A2, compound (D2.3)” for “A2”, “(B4.1)” for “(B1.2)”, “30” for “29”, “evaluated” for “evaluation and calculation were carried out”
as §6, with “2.5” for “2.8”, “3.0” for “3.2”, “A2, compound (D2.3)” for “A2”, “(B6.1)” for “(B1.2)”, “30” for “29”, “evaluated” for “evaluation and calculation were carried out”
Paddy field soil was put into a 1/10,000 are pot, and tubers of flatsedge (Cyperus serotinus) were planted and left to stand under an irrigated condition with a water depth of 3.5 cm. When flatsedge reached 2.5 to 3.0 leaf stage, wettable powders of compound A2, compound (D2.3) and compound (B8.1) were, respectively, diluted with water and applied under submerged condition so that the active ingredients became the prescribed amounts, respectively. […]

[2] = tested on: barnyardgrass (Echinochloa oryzicola vasing); assay: Growth inhibition of barnyardgrass in paddy soil pots, application under submerged condition, visual rating (observed value) and Colby expected value; conditions: for inhibition at 500 g/ha: 5 g/a; for inhibition at 1000 g/ha: 10 g/a
Text: as §1, §2, §3, §4
Paddy field soil was put into a 1/10,000 are pot, and seeds of barnyardgrass (Echinochloa oryzicola vasing) were sown and left to stand under an irrigated condition with a water depth of 3.5 cm. When barnyardgrass reached 2.0 to 2.5 leaf stage, wettable powders of compound A2 and compound (B1.1) were, respectively, diluted with water and applied under submerged condition so that the active ingredients became the prescribed amounts, respectively. The state of growth was visually observed 21 days after application, and the growth inhibition rate (%) evaluated in accordance with the following evaluation standard (observed value) and the growth inhibition rate (%) calculated by the above-mentioned Colby method (expected value) are shown in Table 1.
as §5
(§7) Paddy field soil was put into a 1/10,000 are pot, and seeds of barnyardgrass (Echinochloa oryzicola vasing) were sown and left to stand under an irrigated condition with a water depth of 3.5 cm. When barnyardgrass reached 2.0 to 2.5 leaf stage, wettable powders of compound A2 and compound (B2.1) were, respectively, diluted with water and applied under submerged condition so that the active ingredients became the prescribed amounts, respectively. The state of growth was visually observed 21 days after application, and evaluation and calculation were carried out in the same manner as in the above Test Example 1.
as §7, with “leaf stage, a wettable powder” for “leaf stage, wettable powders”, “a wettable powder of compound” for “stage, wettable powders of compound”, “A2 and an emulsifiable concentrate of compound (B3.1)” for “A2 and compound (B2.1)”, “of compound (B3.1) were, respectively,” for “and compound (B2.1) were, respectively,”
as §7, with “(B4.1)” for “(B2.1)”
Paddy field soil was put into a 1/10,000 are pot, and seeds of barnyardgrass (Echinochloa oryzicola vasing) were sown and left to stand under an irrigated condition with a water depth of 3.5 cm. […]

[3] = tested on: Japanese bulrush (Scirpus juncoides); assay: Growth inhibition of Japanese bulrush in paddy soil pots, application under submerged condition, visual rating and Colby expected value; conditions: 2 leaf stage, 19 days after application
Text: as §1, §2, §3, §4, §5
(§8) Paddy field soil was put into a 1/10,000 are pot, and seeds of Japanese bulrush (Scirpus juncoides) were sown and left to stand under an irrigated condition with a water depth of 3.5 cm. When Japanese bulrush reached 2.3 to 2.6 leaf stage, a wettable powder of compound A2 and granules of compound (B7.1) were, respectively, diluted with water and applied under submerged condition so that the active ingredients became the prescribed amounts, respectively. The state of growth was visually observed 10 days after application, and evaluation and calculation were carried out in the same manner as in the above Test Example 1.
as §8, with “an emulsifiable concentrate” for “granules”, “(B3.1)” for “(B7.1)”
(§9) Paddy field soil was put into a 1/10,000 are pot, and seeds of Japanese bulrush (Scirpus juncoides) were sown and left to stand under an irrigated condition with a water depth of 3.5 cm. When Japanese bulrush reached 2 leaf stage, wettable powders of compound A2, C2 and C4 and granules of compound C6 were, respectively, diluted with water and applied under submerged condition so that the active ingredients became the prescribed amounts, respectively.
Paddy field soil was put into a 1/10,000 are pot, and seeds of Japanese bulrush (Scirpus juncoides) were sown and left to stand under an irrigated condition with a water depth of 3.5 cm. When Japanese bulrush reached 2 leaf stage, wettable powders of compound A2, C2 and C4 and granules of compound C6 were, respectively, diluted with water and applied under submerged condition so that the active ingredients became the prescribed amounts, respectively. The state of growth was visually observed 19 days after application, and the growth inhibition rate (%) evaluated in the same manner as in the above Test Example 1 (observed value) and the growth inhibition rate (%) calculated by the above-mentioned Colby method (expected value) are shown in Tables 36, 37 and 38.
as §9, with “3” for “2”, “A2” for “A2, C2”, “and” for “and C4 and granules of”, “(D2.2)” for “C6”, “respectively. […]” for “respectively.”

[4] = Echinochloa oryzicola, soil, 336 h, 2.8 to 3.4 leaf stage, 14 days after application, Test Examples 66-72, read-out: Growth inhibition rate (%) Observed
[5] = Echinochloa oryzicola, soil, 504 h, 2.0 to 2.5 leaf stage, 21 days after application, read-out: Growth inhibition rate (%) Observed

COc1ccsc1CN(C(=O)CCl)c1c(C)cccc1C [Compound (B3.2), thenylchlor]
inhibition at 250 g/ha ([1]; Cyperus serotinus, soil, 720 h, 2.5 g/a, 2.5 to 3.0 leaf stage, 30 days after application, Test Examples 46-60, read-out: Growth inhibition rate (%) Observed): 35%
inhibition at 93.8 g/ha ([2]; Echinochloa oryzicola, soil, 504 h, 0.938 g/a, 2.8 to 3.2 leaf stage, 21 days after application, read-out: Growth inhibition rate (%) Observed): 5%
inhibition at 94 g/ha ([2]; Echinochloa oryzicola, soil, 504 h, 0.94 g/a, 2.8 to 3.2 leaf stage, 21 days after application, Test Examples 39-43, read-out: Growth inhibition rate (%) Observed): 0%
inhibition at 187.5 g/ha ([2]; Echinochloa oryzicola, soil, 504 h, 1.875 g/a, 2.8 to 3.2 leaf stage, 21 days after application, read-out: Growth inhibition rate (%) Observed): 27%
inhibition at 188 g/ha ([2]; Echinochloa oryzicola, soil, 504 h, 1.88 g/a, 2.8 to 3.2 leaf stage, 21 days after application, Test Examples 39-43, read-out: Growth inhibition rate (%) Observed): 15%

CCN(CC)C(=O)n1cnc(S(=O)(=O)c2c(C)cc(C)cc2C)n1 [Compound (B9.1), cafenstrole]
Growth inhibition rate (%) Observed ([1]; 2.1 g/a, 2.5 to 3.0 leaf stage, 30 days after application, Test Examples 46-60): 35%
Growth inhibition rate (%) Observed ([2]; 0.525 g/a, 2.8 to 3.2 leaf stage, 21 days after application): 2%
Growth inhibition rate (%) Observed ([2]; 0.788 g/a, 2.1 to 3.2 leaf stage, 21 days after application): 57%
Growth inhibition rate (%) Observed ([2]; 0.788 g/a, 2.8 to 3.2 leaf stage, 19 days after application, Test Examples 62-65): 10%
Growth inhibition rate (%) Observed ([2]; 1.05 g/a, 2.8 to 3.2 leaf stage, 21 days after application): 10%
Growth inhibition rate (%) Observed ([2]; 1.58 g/a, 2.8 to 3.2 leaf stage, 19 days after application, Test Examples 62-65): 10%

CCOC(=O)CCCOc1ccc(Cl)cc1C [Compound C4, MCPB ethyl]
Growth inhibition rate (%) Observed ([1]; 2.0 g/a, 4 leaf stage, 21 days after application): 33%
Growth inhibition rate (%) Observed ([1]; 2.4 g/a, 4 leaf stage, 21 days after application): 57%
Growth inhibition rate (%) Observed ([3]; 0.5 g/a, Test Example 33): 10%
Growth inhibition rate (%) Observed ([3]; 1.0 g/a, Test Example 33): 27%
Growth inhibition rate (%) Observed ([3]; 1.5 g/a, Test Example 34): 20%
Growth inhibition rate (%) Observed ([3]; 2.0 g/a, Test Example 33): 55%
Growth inhibition rate (%) Observed ([3]; 10 g/a, Test Example 34): 68%

CCC1(CC2(c3cccc(Cl)c3)CO2)C(=O)c2ccccc2C1=O (stereo not drawn) [Compound (B10.1), indanofan]
inhibition at 150 g/ha ([1]; Cyperus serotinus, soil, 720 h, 1.5 g/a, 2.5 to 3.0 leaf stage, 30 days after application, Test Examples 46-60, read-out: Growth inhibition rate (%) Observed): 25%
inhibition at 37.5 g/ha ([2]; Echinochloa oryzicola, soil, 504 h, 0.375 g/a, 2.8 to 3.2 leaf stage, 21 days after application, read-out: Growth inhibition rate (%) Observed): 0%
inhibition at 75 g/ha ([2]; Echinochloa oryzicola, soil, 504 h, 0.75 g/a, 2.8 to 3.2 leaf stage, 21 days after application, read-out: Growth inhibition rate (%) Observed): 13%
inhibition at 56.3 g/ha ([2]; Echinochloa oryzicola, soil, 528 h, 0.563 g/a, 2.1 to 3.2 leaf stage, 22 days after application, read-out: Growth inhibition rate (%) Observed): 40%

CC(C)(NC(=O)C(Br)C(C)(C)C)c1ccccc1 (stereo not drawn) [Compound (B6.1), bromobutide]
inhibition at 1000 g/ha ([1]; Cyperus serotinus, soil, 720 h, read-out: Growth inhibition rate (%) Observed): 35%
inhibition at 500 g/ha [2, 4]: 10%
inhibition at 1000 g/ha [2, 4]: 10%
inhibition at 500 g/ha [2, 5]: 0%
inhibition at 1000 g/ha [2, 5]: 10%

CS(=O)(=O)c1ccc(C(=O)C2=C(Sc3ccccc3)C3CCC(C3)C2=O)c(Cl)c1 (stereo not drawn) [Compound (B4.1), benzobicyclon]
inhibition at 200 g/ha ([1]; Cyperus serotinus, soil, 720 h, 2 g/a, 2.5 to 3.0 leaf stage, 30 days after application, Test Examples 46-60, read-out: Growth inhibition rate (%) Observed): 60%
inhibition at 100 g/ha ([2]; Echinochloa oryzicola, soil, 504 h, 1 g/a, 2.0 to 2.5 leaf stage, 21 days after application, read-out: Growth inhibition rate (%) Observed): 13%
inhibition at 200 g/ha ([2]; Echinochloa oryzicola, soil, 504 h, 2 g/a, 2.0 to 2.5 leaf stage, 21 days after application, read-out: Growth inhibition rate (%) Observed): 33%
